Our source for the IC50 values is patent publication US10280139B2, “Cytotoxic peptides and conjugates thereof” (priority 2014, dated 2019).

Test in all cases: In vitro cell killing assay of compounds of Formula (I), Cell-Titer-Glo
What all share (type): cell-based

One assay concerns CMK11-5 cells. Conditions: Homo sapiens, CMK-11-5, 120 h; free compound, five days incubation. How it is done: (§1) For evaluation of the cell killing potency of the compounds of Formula (I) in vitro, cell proliferation assays were performed in parallel with 8 cell lines: MDA-MB231 clone 16, clone 40, JimT1, HCC1954, NCl-H526, KU812, CMK11-5 cells and Jurkat cells. […] The cell proliferation assays were conducted with Cell-Titer-Glo™ (Promega) five days after cells were incubated with various concentrations of the compound (Riss et al., (2004) Assay Drug Dev Technol. 2:51-62).

A further assay deals with HCC1954. Conditions: Homo sapiens, HCC1954, 120 h; free compound, five days incubation. How it is done:
as §1

Another assay has as its system JimT1. The conditions noted are these: Homo sapiens, JIMT-1, 120 h; free compound, five days incubation. Here is the method: as §1
A further assay deals with Jurkat cells. The conditions noted are these: Homo sapiens, 120 h, free compound, five days incubation. How it is done:
as §1

A further assay deals with KU812. Conditions: Homo sapiens, KU812, 120 h; free compound, five days incubation. How it is done:
as §1

The subject of the next assay is MDA-MB231 clone 16. The conditions noted are these: Homo sapiens, MDA-MB-231, 120 h; free compound, five days incubation. How it is done:
as §1

In the next assay the test system is MDA-MB231 clone 40. Conditions: Homo sapiens, MDA-MB-231, 120 h; free compound, five days incubation. Here is the method: as §1
The next assay deals with NCI-H526. The conditions noted are these: Homo sapiens, NCI-H526, 120 h; free compound, five days incubation. How it is done:
as §1

Broadly, the IC50 is the midpoint of a concentration-inhibition curve. Read a low IC50 as higher potency.

For the compound `CC[C@H](C)[C@@H]([C@@H](CC(=O)N1CCC[C@H]1[C@H](OC)[C@@H](C)C(=O)N[C@@H](Cc1ccccc1)C(=O)O)OC)N(C)C(=O)[C@@H](/N=C(\N(C)C)N(C)CCN(C)C(=O)CCCCCN1C(=O)C=CC1=O)C(C)C` [NL-9, (S)-2-((2R,3R)-3-((S)-1-((3R,4S,7S,E)-4-((S)-sec-butyl)-9-(dimethylamino)-19-(2,5-dioxo-2,5-dihydro-1H-pyrrol-1-yl)-7-isopropyl-3-methoxy-5,10,13-trimethyl-6,14-dioxo-5,8,10,13-tetraazanonadec-8-en-1-oyl)pyrrolidin-2-yl)-3-methoxy-2-methylpropanamido)-3-phenylpropanoic acid], the half-maximal inhibitory concentration (IC50) with CMK11-5 cells was 0.0104 µM; with HCC1954, 0.0023 µM; in the assay on JimT1, 0.0142 µM; in the assay with Jurkat cells, 0.0061 µM; in the assay on KU812, 0.0084 µM; in the assay on MDA-MB231 clone 16, 0.0081 µM. Besides, the IC50 with MDA-MB231 clone 40 came to 0.0117 µM; with NCI-H526 it was 0.0295 µM.

As for `CC[C@H](C)[C@@H]([C@@H](CC(=O)N1CCC[C@H]1[C@H](OC)[C@@H](C)C(=O)N[C@@H](Cc1ccccc1)C(=O)OC)OC)N(C)C(=O)[C@@H](NC(=O)N(C(C)C)C(C)C)C(C)C` [FP-5, (S)-methyl-2-((2R,3R)-3-((S)-1-((3R,4S,5S)-4-((S)-2-(3,3-diisopropylureido)-N,3-dimethylbutanamido)-3-methoxy-5-methylheptanoyl)pyrrolidin-2-yl)-3-methoxy-2-methylpropanamido)-3-phenylpropanoate], the IC50 with CMK11-5 cells was 0.0748 µM; in the assay with HCC1954 it was 0.047 µM; with JimT1, 0.0447 µM; with Jurkat cells it was 0.0499 µM; with KU812, 0.106 µM; with MDA-MB231 clone 16, 0.0835 µM. Moreover, the half-maximal inhibitory concentration (IC50) with MDA-MB231 clone 40 amounted to 0.139 µM; in the assay on NCI-H526, 0.204 µM.

In the case of `CC[C@H](C)[C@@H]([C@@H](CC(=O)N1CCC[C@H]1[C@H](OC)[C@@H](C)C(=O)N[C@@H](Cc1ccccc1)C(=O)NS(=O)(=O)CCCN=[N+]=[N-])OC)N(C)C(=O)[C@@H](N=C(N(C)C)N(C)C)C(C)C` [FP-3, (S)-2-((bis(dimethylamino)methylene)amino)-1-(((3R,4S,5S)-1-((S)-2-((1R,2R)-3-(((S)-N-1-(3-azidopropylsulfonamido)-1-oxo-3-phenylpropan-2-yl)amino)-1-methoxy-2-methyl-3-oxopropyl)pyrrolidin-1-yl)-3-methoxy-5-methyl-1-oxoheptan-4-yl)(methyl)amino)-3-methyl-1-oxobutane], the IC50 was found to be 0.0147 µM in the assay on CMK11-5 cells; 0.0108 µM in the assay on HCC1954; 0.0421 µM in the assay on JimT1; 0.00301 µM in the assay with Jurkat cells; 0.00678 µM with KU812; 0.0127 µM with MDA-MB231 clone 16. Further, the IC50 was 0.0239 µM in the assay on MDA-MB231 clone 40 and 0.022 µM with NCI-H526.
